# Test results from patent US11338026B2, “Identification of immunologically protective neo-epitopes for the treatment of cancers” (THE UNIVERSITY OF CONNECTICUT, priority 2014, dated 2022).
# Like-named read-outs stand apart in the source and are kept apart here. Peptide text beside a SMILES is read from it.
# How the values were obtained:
# CD8+ cells [1] = assay: Intracellular IFN-γ assay by FACS (ICS) on lymphocytes of immunized mice; format: in vivo, BALB/c mice; conditions: for immunogenicity of WT counterpart (functional effector T cells): mice immunized with the WT counterpart of the named neo-epitope
# Procedure: Intracellular IFN-γ assay by FACS and ELISPOT. Lymphocytes were incubated either with or without 1-10 μg/ml peptide. GolgiPlug (BD Biosciences, San Jose, Calif.) was added 1 h later. After incubation of 12 to 16 h, cells were stained for CD44 (clone IM7), CD4 (clone GK1.5) and CD8 (clone 53-6.7) (BD Biosciences, San Jose, Calif.), fixed and permeabilized using the Cytofix/Cytoperm™ kit (BD Biosciences, San Jose, Calif.), and stained for intracellular IFN-γ using Phycoerythrin-conjugated anti-mouse IFN-γ (clone XMG1.2, BD Biosciences, San Jose, Calif.). Cells were stained with 1 μl antibody/million cells in 50 μl staining buffer (PBS with 1% bovine serum albumin) and incubated for 20 min at 4° C. in the dark, or according to the manufacturer's instructions. Cells without peptide stimulation were used as a negative control, and the values for these controls was very close to the values seen with the negative control peptide. Typically, 95,000-129,000 lymphocytes (14,500-17,000 CD8+CD4− cells) were acquired. The background is consistently very low (10% of the signal).
# (§1) All 18 peptides were used to immunize BALB/c mice. The draining lymph nodes (dLNs) of immunized mice were harvested one week after the single immunization, and the cells were stimulated in vitro for 16 h without any added peptide, the mutant peptide used for immunization, or the corresponding wild type peptide. The CD8+ cells were analyzed for activation (CD44+) and effector function (intracellular IFNγ+). (see Materials and Methods regarding the details of FACS analysis.) All possible patterns of immune-reactivity were observed (FIG. 3A): no immune response (12/18), a mutant peptide-specific, i.e. tumor-specific immune response (5/18), and a cross-reactive response between the mutant and corresponding wild type peptides (1/18).
# CMS5 = assay: Tumor challenge / tumor rejection after peptide immunization, CMS5; format: in vivo, BALB/c mice
# Procedure: Tumor challenge and representation of tumor growth. AUC as a tool to measure tumor growth has been described previously. Briefly, AUC was calculated by selecting “Curves & Regression” and then “Area under curve” from the “analyze” tool, using the Prism 5.0 (GraphPad Software, Inc., La Jolla, Calif.). Grubb' test was used to remove up to one outlier from each group.
# Depletion of T cell subsets. Immunized mice were depleted of CD8 cells using anti-CD8 rat IgG2b monoclonal antibody 2.43), or depleted of CD4 cells using anti-CD4 rat IgG2b monoclonal antibody GK1.5. Depleting antibodies were given in PBS intraperitoneally two days before tumor challenge and every seven days for the duration of the experiment. First three injections of depleting antibodies were 250 μg per mouse and the later injections were 500 μg per mouse. For treatment with antagonistic antibodies, mice were treated with anti-CD25 antibody (clone PC61, 250 μg, two days before tumor challenge) or anti-CTLA-4 antibody (clone 9D9, 100 μg, seven days before and every three days after tumor challenge). The appropriate T cell sub-sets were depleted by over 95%.
# Lack of immuno-protective activity of the strongest K^d-binding neo-epitopes. […]
# CD8+ cells [2] = assay: IFNγ ELISPOT on CD8+ cells of immunized mice; format: in vivo, BALB/c mice; conditions: for ELISpot: mice immunized with mutant peptide; for CD8 T cell response of immunized mice: text, ELISPOT
# Procedure: For the ELISPOT assays, the negative controls were CD8+ cells from immunized mice without peptide stimulation. […] The magnitude of responses was rated by mean spot numbers per million CD8+ cells: 5-10 (+); 11-20 (++); 21-50 (+++); 51-100(++++) and >100(+++++).
# as §1
# H-2 K^d = target: T1, H-2 K^d (Mus musculus, UniProt P01902); assay: Binding assays: inhibition of binding of a radiolabeled standard peptide to purified MHC molecules
# T1 sequence (P01902 22-368): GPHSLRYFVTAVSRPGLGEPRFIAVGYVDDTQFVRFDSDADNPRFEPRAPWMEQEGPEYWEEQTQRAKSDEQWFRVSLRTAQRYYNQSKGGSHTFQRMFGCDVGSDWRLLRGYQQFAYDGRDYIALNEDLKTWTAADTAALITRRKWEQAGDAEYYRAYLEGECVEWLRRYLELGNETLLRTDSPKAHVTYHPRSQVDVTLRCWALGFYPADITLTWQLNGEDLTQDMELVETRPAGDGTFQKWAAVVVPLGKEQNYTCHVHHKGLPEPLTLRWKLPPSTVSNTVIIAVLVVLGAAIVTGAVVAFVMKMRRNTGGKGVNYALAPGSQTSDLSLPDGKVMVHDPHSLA
# T1 sequence (P01887 21-119 partner): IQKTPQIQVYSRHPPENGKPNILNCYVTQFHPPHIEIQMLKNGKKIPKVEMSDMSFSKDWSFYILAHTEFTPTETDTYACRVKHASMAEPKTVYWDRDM
# Procedure: Binding assays. Binding of peptides to H-2 K^d was determined using quantitative assays based on the inhibition of binding of a radiolabeled standard peptide to purified MHC molecules essentially as described previously. […] Under the conditions utilized, where [label]<[MHC] and IC50≥[MHC], the measured IC50 values are reasonable approximations of the dissociation constant values.
Compound,CD8 T cell response by intracellular cytokine assay (CD8+ cells [1]),protection from tumor growth / tumor rejection (CMS5),ELISpot (CD8+ cells [2]),CD8 T cell response of immunized mice (CD8+ cells [2]),immunogenicity of WT counterpart (functional effector T cells) (CD8+ cells [1]),other results
"CSCC[C@H](NC(=O)[C@@H]1CCCN1C(=O)[C@@H](NC(=O)[C@H](Cc1ccc(O)cc1)NC(=O)[C@@H](N)CC(=O)O)C(C)C)C(=O)N[C@@H](CCC(=O)O)C(=O)N[C@@H](CCC(N)=O)C(=O)N1CCC[C@H]1C(=O)N[C@@H](CCCNC(=N)N)C(=O)O [Alkbh6.2, D(y/D)VPMEQPR] (H-DYVPMEQPR-OH; N-terminus and C-terminus assumed)",un-detectable by the intracellular cytokine assay,representative neo-epitopes that do,++ (10-20 spots/10^6 CD8 = ++),modest CD8 T cell response,–,–
CC(C)C[C@H](NC(=O)[C@H](Cc1ccc(O)cc1)NC(=O)[C@@H](N)CC(C)C)C(=O)N[C@@H](CC(=O)O)C(=O)N[C@@H](CO)C(=O)N[C@@H](CCCCN)C(=O)N[C@@H](CO)C(=O)N[C@@H](CC(=O)O)C(=O)N[C@H](C(=O)N[C@H](C(=O)N[C@H](C(=O)O)C(C)C)[C@@H](C)O)[C@@H](C)O [Alms1.1],–,–,–,–,elicited functional effector T cells in vivo,–
CC(C)C[C@H](NC(=O)[C@@H]1CCCN1C(=O)[C@@H](NC(=O)[C@H](CCCNC(=N)N)NC(=O)[C@H](CCCCN)NC(=O)[C@H](CC(C)C)NC(=O)[C@H](CC(C)C)NC(=O)[C@@H]1CCCN1C(=O)[C@@H](NC(=O)[C@H](Cc1ccc(O)cc1)NC(=O)[C@@H](N)Cc1ccc(O)cc1)C(C)C)C(C)C)C(=O)O [Alms1.2] (H-YYVPLLKRVPL-OH),–,–,++ (10-20 spots/10^6 CD8 = ++),–,elicited functional effector T cells in vivo,"IC50 (H-2 K^d): 1480 nM; IC50 (H-2 K^d; mutant peptide, read-out: Measured IC50 for K^d (Mut/WT): Mut): 421 nM"
CSCC[C@H](NC(=O)[C@H](CC(C)C)NC(=O)CNC(=O)[C@@H]1CCCN1C(=O)[C@H](Cc1ccccc1)NC(=O)[C@@H](NC(=O)[C@@H](N)CCC(N)=O)C(C)C)C(=O)N[C@@H](CCC(=O)O)C(=O)N[C@@H](CC(C)C)C(=O)O [Atxn10.1] (H-QVFPGLMEL-OH; N-terminus and C-terminus assumed),un-detectable by the intracellular cytokine assay,representative neo-epitopes that do,+++ (21-50 spots/10^6 CD8 = +++),modest CD8 T cell response,–,"IC50 (H-2 K^d; WT counterpart peptide, read-out: Measured IC50 for K^d (Mut/WT): WT): 7050 nM"
"CC[C@H](C)[C@H](NC(=O)[C@H](Cc1ccc(O)cc1)NC(=O)[C@@H](N)[C@@H](C)O)C(=O)N[C@@H](CCCNC(=N)N)C(=O)N1CCC[C@H]1C(=O)N[C@@H](Cc1ccccc1)C(=O)N[C@@H](CCC(=O)O)C(=O)N[C@H](C(=O)N[C@@H](CCCCN)C(=O)N[C@H](C(=O)O)C(C)C)[C@@H](C)O [Ccdc85c, TYIRP(f/L)ETKV] (H-TYIRPFETKV-OH)",–,–,–,–,elicited functional effector T cells in vivo,–
SIINFEKL (listed as Gallus gallus) [reference compound],–,–,–,–,–,CD8 response after second immunization (Prime vs Boost) (CD8+ cells [1]; 100 μg peptide once or twice with a 29-day interval): amplified by a second immunization
